Reference: ChEMBL document CHEMBL5052856, “Inhibitors of apol1 and methods of using same” (2021)

Target: Apolipoprotein L1 (Homo sapiens, UniProt O14791)
Assay: Inhibition of APOL1 G1 variant in human HEK293-T-REx cells measured by Thallium assay
Format: cell-based

Compound | IC50
O=C([C@H]1C[C@H](c2c(-c3ccc(F)cc3)[nH]c3c(F)cc(F)cc32)C1)N1CCC[C@@H](O)C1 (mixture of isomers) | 0.25 nM
O=C1NCCC1CNC(=O)[C@H]1C[C@H](c2c(-c3ccc(F)cc3)[nH]c3c(F)cc(F)cc32)C1 (stereo partly drawn) | > 1000 nM
O=C([C@H]1C[C@H](c2c(-c3ccc(F)cc3)[nH]c3c(F)cc(F)cc32)C1)N1CCOC[C@@H]1CO | 0.25 nM
CC(C)(NC(=O)[C@H]1C[C@H](c2c(-c3ccc(F)cc3)[nH]c3c(F)cc(F)cc32)C1)C(N)=O | 0.25 nM
O=C([C@H]1C[C@H](c2c(-c3ccc(F)cc3)[nH]c3c(F)cc(F)cc32)C1)N1CCCC[C@@H]1CCO | > 1000 nM
O=C(NC[C@@H](O)CO)[C@H]1C[C@H](c2c(-c3ccc(F)cc3)[nH]c3c(F)cc(F)cc32)C1 | > 1000 nM
CC(O)C1CCN(C(=O)[C@H]2C[C@H](c3c(-c4ccc(F)cc4)[nH]c4c(F)cc(F)cc43)C2)CC1 (stereo partly drawn) | > 1000 nM
C[C@@H](NC(=O)[C@H]1C[C@H](c2c(-c3ccc(F)cc3)[nH]c3c(F)cc(F)cc32)C1)C(=O)N(C)C | > 1000 nM
O=C(NCC(F)(F)F)[C@H]1C[C@H](c2c(-c3ccc(F)cc3)[nH]c3c(F)cc(F)cc32)C1 | 0.25 nM
CC1(C)CN(C(=O)[C@H]2C[C@H](c3c(-c4ccc(F)cc4)[nH]c4c(F)cc(F)cc43)C2)CC1O (stereo partly drawn) | > 1000 nM
CC(C)CC(NC(=O)[C@H]1C[C@@H](c2c(-c3ccc(F)cc3)[nH]c3c(F)cc(F)cc32)C1)C(N)=O (stereo partly drawn) | > 1000 nM
O=C(NCC1CCCO1)C1CC(Cc2c(-c3ccc(F)cc3)[nH]c3c(F)cc(F)cc23)C1 (stereo not drawn) | > 1000 nM
Cc1ccn(CCNC(=O)[C@H]2C[C@@H](c3c(-c4ccc(F)cc4)[nH]c4c(F)cc(F)cc43)C2)n1 | 0.25 nM
CC1(C)CC(C)(NC(=O)NC[C@H]2C[C@H](c3c(-c4ccc(F)cc4)[nH]c4c(F)cc(F)cc43)C2)C(=O)O1 (stereo partly drawn) | > 1000 nM
CC1(NC(=O)NC[C@H]2C[C@H](c3c(-c4ccc(F)cc4)[nH]c4c(F)cc(F)cc43)C2)CCNC1=O (stereo partly drawn) | > 1000 nM
CC(CO)NC(=O)[C@H]1C[C@@H](c2c(-c3ccc(F)cc3)[nH]c3c(F)cc(F)cc32)C1 (stereo partly drawn) | > 1000 nM
Cc1nn(C)cc1CNC(=O)C1CC(Cc2c(-c3ccc(F)cc3)[nH]c3c(F)cc(F)cc23)C1 (stereo not drawn) | > 1000 nM
O=C(NCc1cnco1)O[C@H]1C[C@H](c2c(-c3ccc(F)cc3)[nH]c3c(F)cc(F)cc32)C1 | 0.25 nM
Cc1ccc(CNC(=O)O[C@H]2C[C@H](c3c(-c4ccc(F)cc4)[nH]c4c(F)cc(F)cc43)C2)o1 | > 1000 nM

Compound | IC50
O=C(NCc1ncc[nH]1)C1CC(Cc2c(-c3ccc(F)cc3)[nH]c3c(F)cc(F)cc23)C1 (stereo not drawn) | > 1000 nM
O=C(N[C@H]1COC[C@@H]1O)O[C@H]1C[C@H](c2c(-c3ccc(F)cc3)[nH]c3c(F)cc(F)cc32)C1 | > 1000 nM
CN(CC1CC(c2c(-c3ccc(F)cc3)[nH]c3c(F)cc(F)cc23)C1)C(=O)NCc1cn(C)cn1 (stereo not drawn) | > 1000 nM
O=C(NC1(CO)CC1)[C@H]1C[C@@H](c2c(-c3ccc(F)cc3)[nH]c3c(F)cc(F)cc32)C1 | > 1000 nM
CC(C)(CO)NC(=O)O[C@H]1C[C@H](c2c(-c3ccc(F)cc3)[nH]c3c(F)cc(F)cc32)C1 | 0.25 nM
CC(=O)NCCNC(=O)C1CC(Cc2c(-c3ccc(F)cc3)[nH]c3c(F)cc(F)cc23)C1 (stereo not drawn) | > 1000 nM
CC(NC(=O)C1CC(Cc2c(-c3ccc(F)cc3)[nH]c3c(F)cc(F)cc23)C1)c1ccn(C)n1 (stereo not drawn) | > 1000 nM
O=C(NCc1ncc[nH]1)O[C@H]1C[C@H](c2c(-c3ccc(F)cc3)[nH]c3c(F)cc(F)cc32)C1 | > 1000 nM
O=C(NCC1(O)CCC1)C1CC(Cc2c(-c3ccc(F)cc3)[nH]c3c(F)cc(F)cc23)C1 (stereo not drawn) | > 1000 nM
O=C(NCCO)[C@H]1C[C@@H](c2c(-c3ccc(F)cc3)[nH]c3c(F)cc(F)cc32)C1 | 0.25 nM
CC(C)C(CO)NC(=O)O[C@H]1C[C@H](c2c(-c3ccc(F)cc3)[nH]c3c(F)cc(F)cc32)C1 (stereo partly drawn) | > 1000 nM
O=C1NCC[C@H]1NC(=O)[C@H]1C[C@@H](c2c(-c3ccc(F)cc3)[nH]c3c(F)cc(F)cc32)C1 | > 1000 nM
O=C(NCC1CCOC1)O[C@H]1C[C@H](c2c(-c3ccc(F)cc3)[nH]c3c(F)cc(F)cc32)C1 (stereo partly drawn) | > 1000 nM
CC[C@H](NCC1CC(c2c(-c3ccc(F)cc3)[nH]c3c(F)cc(F)cc23)C1)C(=O)NCC(F)(F)F (stereo partly drawn) | > 1000 nM
C[C@@H](CO)NC(=O)O[C@H]1C[C@H](c2c(-c3ccc(F)cc3)[nH]c3c(F)cc(F)cc32)C1 | 0.25 nM
O=C(NC(CO)CO)N[C@H]1C[C@H](c2c(-c3ccc(F)cc3)[nH]c3c(F)cc(F)cc32)C1 | > 1000 nM
O=C(NCc1cnco1)C1CC(Cc2c(-c3ccc(F)cc3)[nH]c3c(F)cc(F)cc23)C1 (stereo not drawn) | > 1000 nM
O=C1NC[C@@H](O)[C@@H]1NC(=O)[C@H]1C[C@@H](c2c(-c3ccc(F)cc3)[nH]c3c(F)cc(F)cc32)C1 | > 1000 nM
O=C(NC[C@H]1C[C@H](c2c(-c3ccc(F)cc3)[nH]c3c(F)cc(F)cc32)C1)NC1CC(O)C1 (stereo partly drawn) | > 1000 nM

Test system: Trypanosoma brucei brucei
Assay: Antitrypanosomal activity against Trypanosoma brucei brucei assessed as trypanosome lysis using recombinant APOL1 protein G1 variant and measured by Alamar blue based fluoresence assay
Format: functional, organism-based

Compound | IC50
O=C([C@H]1C[C@H](c2c(-c3ccc(F)cc3)[nH]c3c(F)cc(F)cc32)C1)N1CCC[C@@H](O)C1 (mixture of isomers) | < 250 nM
O=C1NCCC1CNC(=O)[C@H]1C[C@H](c2c(-c3ccc(F)cc3)[nH]c3c(F)cc(F)cc32)C1 (stereo partly drawn) | > 1000 nM
O=C([C@H]1C[C@H](c2c(-c3ccc(F)cc3)[nH]c3c(F)cc(F)cc32)C1)N1CCOC[C@@H]1CO | < 250 nM
CC(C)(NC(=O)[C@H]1C[C@H](c2c(-c3ccc(F)cc3)[nH]c3c(F)cc(F)cc32)C1)C(N)=O | < 250 nM
O=C([C@H]1C[C@H](c2c(-c3ccc(F)cc3)[nH]c3c(F)cc(F)cc32)C1)N1CCCC[C@@H]1CCO | > 1000 nM
O=C(NC[C@@H](O)CO)[C@H]1C[C@H](c2c(-c3ccc(F)cc3)[nH]c3c(F)cc(F)cc32)C1 | > 1000 nM
CC(O)C1CCN(C(=O)[C@H]2C[C@H](c3c(-c4ccc(F)cc4)[nH]c4c(F)cc(F)cc43)C2)CC1 (stereo partly drawn) | > 1000 nM
C[C@@H](NC(=O)[C@H]1C[C@H](c2c(-c3ccc(F)cc3)[nH]c3c(F)cc(F)cc32)C1)C(=O)N(C)C | > 1000 nM
O=C(NCC(F)(F)F)[C@H]1C[C@H](c2c(-c3ccc(F)cc3)[nH]c3c(F)cc(F)cc32)C1 | > 1000 nM
CC1(C)CN(C(=O)[C@H]2C[C@H](c3c(-c4ccc(F)cc4)[nH]c4c(F)cc(F)cc43)C2)CC1O (stereo partly drawn) | > 1000 nM
